Assay results reported in US20180008575A1, “METHODS OF TREATING BINGE EATING DISORDER” (Neurovance, Inc., priority 2016, published 2018).

Key:
[1] = molecular target: T1, monoamine oxidase A (MAO A) (Homo sapiens, UniProt P21397); assay: metabolic pathway
T1 sequence (P21397 1-527): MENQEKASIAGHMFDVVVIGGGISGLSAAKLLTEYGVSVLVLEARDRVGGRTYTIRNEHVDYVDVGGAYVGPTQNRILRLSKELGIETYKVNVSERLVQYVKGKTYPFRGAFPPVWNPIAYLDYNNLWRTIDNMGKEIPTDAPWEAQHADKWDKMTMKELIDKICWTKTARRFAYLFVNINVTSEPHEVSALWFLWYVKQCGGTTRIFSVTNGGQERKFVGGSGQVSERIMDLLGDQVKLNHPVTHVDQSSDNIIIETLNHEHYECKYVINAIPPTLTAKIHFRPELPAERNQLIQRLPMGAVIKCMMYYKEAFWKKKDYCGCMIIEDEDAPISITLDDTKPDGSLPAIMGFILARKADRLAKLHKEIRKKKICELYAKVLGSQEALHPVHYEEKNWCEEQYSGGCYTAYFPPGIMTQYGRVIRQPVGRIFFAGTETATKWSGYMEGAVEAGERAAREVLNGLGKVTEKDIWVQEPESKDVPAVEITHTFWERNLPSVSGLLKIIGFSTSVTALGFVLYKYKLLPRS

[2] = molecular target: norepinephrine reuptake (NE) (Homo sapiens, UniProt P23975); assay: norepinephrine reuptake inhibition; type: biochemical; settings: unbalanced triple reuptake inhibitor
[3] = molecular target: dopamine reuptake (DA) (Homo sapiens, UniProt Q01959); assay: dopamine reuptake inhibition; type: biochemical; settings: fraction of the potency towards NE reuptake
[4] = molecular target: serotonin reuptake (5-HT) (Homo sapiens, UniProt P31645); assay: serotonin reuptake inhibition; type: biochemical; settings: fraction of the potency towards NE reuptake
Sequence of serotonin reuptake (5-HT) (P31645 whole entry): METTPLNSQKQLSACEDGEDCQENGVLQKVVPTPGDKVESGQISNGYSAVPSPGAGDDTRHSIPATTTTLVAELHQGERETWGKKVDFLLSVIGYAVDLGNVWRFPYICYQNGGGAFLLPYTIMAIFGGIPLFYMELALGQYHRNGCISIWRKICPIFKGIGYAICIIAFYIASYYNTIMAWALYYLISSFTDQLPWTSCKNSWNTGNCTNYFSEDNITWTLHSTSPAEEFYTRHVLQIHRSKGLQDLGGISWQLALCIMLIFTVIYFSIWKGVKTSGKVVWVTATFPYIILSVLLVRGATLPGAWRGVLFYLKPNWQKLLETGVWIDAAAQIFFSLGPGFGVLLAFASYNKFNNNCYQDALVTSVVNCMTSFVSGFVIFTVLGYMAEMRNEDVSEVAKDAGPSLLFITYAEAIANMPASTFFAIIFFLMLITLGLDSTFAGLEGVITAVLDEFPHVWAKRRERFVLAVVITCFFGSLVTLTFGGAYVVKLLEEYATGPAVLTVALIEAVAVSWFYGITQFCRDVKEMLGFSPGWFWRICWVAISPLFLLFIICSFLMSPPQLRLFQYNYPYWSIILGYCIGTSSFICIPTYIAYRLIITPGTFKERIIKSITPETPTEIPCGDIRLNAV

Sequence of dopamine reuptake (DA) (Q01959 whole entry): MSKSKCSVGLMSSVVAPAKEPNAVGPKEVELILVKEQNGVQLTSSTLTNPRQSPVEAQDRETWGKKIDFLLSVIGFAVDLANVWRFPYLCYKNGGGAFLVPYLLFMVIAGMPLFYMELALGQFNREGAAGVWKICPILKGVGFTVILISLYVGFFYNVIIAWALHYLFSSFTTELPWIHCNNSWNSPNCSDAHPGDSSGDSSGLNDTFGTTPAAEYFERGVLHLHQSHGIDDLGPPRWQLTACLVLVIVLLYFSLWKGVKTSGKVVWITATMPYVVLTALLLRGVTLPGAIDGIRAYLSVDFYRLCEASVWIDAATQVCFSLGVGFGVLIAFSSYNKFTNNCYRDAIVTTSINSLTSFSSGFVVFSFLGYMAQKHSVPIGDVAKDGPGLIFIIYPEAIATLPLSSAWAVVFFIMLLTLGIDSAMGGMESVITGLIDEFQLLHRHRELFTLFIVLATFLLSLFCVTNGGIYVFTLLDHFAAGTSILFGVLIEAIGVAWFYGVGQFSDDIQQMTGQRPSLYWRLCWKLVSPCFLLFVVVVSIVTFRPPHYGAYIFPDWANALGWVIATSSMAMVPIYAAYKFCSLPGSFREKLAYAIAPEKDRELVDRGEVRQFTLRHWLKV
Sequence of norepinephrine reuptake (NE) (P23975 whole entry): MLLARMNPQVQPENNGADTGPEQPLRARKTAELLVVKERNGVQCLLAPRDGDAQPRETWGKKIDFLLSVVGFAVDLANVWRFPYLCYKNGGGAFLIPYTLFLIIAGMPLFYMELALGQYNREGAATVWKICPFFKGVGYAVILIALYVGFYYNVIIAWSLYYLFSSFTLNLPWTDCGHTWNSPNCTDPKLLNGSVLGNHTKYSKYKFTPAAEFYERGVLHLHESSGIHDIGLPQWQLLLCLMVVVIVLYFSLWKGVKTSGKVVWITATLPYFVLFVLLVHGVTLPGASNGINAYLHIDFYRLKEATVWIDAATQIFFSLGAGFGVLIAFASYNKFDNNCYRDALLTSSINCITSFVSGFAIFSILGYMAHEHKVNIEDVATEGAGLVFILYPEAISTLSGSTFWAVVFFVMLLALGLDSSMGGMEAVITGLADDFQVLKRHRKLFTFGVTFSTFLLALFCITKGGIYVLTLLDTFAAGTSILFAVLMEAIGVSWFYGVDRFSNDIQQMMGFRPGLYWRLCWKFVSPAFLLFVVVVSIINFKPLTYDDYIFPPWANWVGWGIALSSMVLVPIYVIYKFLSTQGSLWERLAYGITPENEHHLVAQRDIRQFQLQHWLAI

In the case of `c1ccc2cc([C@]34CNC[C@H]3C4)ccc2c1` [(1R,5S)-1-(naphthalen-2-yl)-3-azabicyclo[3.1.0]hexane], the primary metabolising enzyme [1] is reported as “primarily metabolized by monoamine oxidase A (MAO A)”, the “potency towards norepinephrine reuptake (relative rank among NE, DA, 5-HT)” value [2] is reported as “most potency towards norepinephrine reuptake” and the “potency towards dopamine reuptake relative to norepinephrine reuptake” value [3] is reported as “one-sixth”. For the same compound, the “potency towards serotonin reuptake relative to norepinephrine reuptake” value [4] was “one-fourteenth”.
